Data reported in ChEMBL document CHEMBL5291721, “A preclinical secondary pharmacology resource illuminates target-adverse drug reaction associations of marketed drugs” (Nat Commun, 2023).

Legend:
[1] = biological target: T1, Alpha-2A adrenergic receptor (Homo sapiens, UniProt P08913); type: functional, cell-based
T1 sequence (P08913 whole entry): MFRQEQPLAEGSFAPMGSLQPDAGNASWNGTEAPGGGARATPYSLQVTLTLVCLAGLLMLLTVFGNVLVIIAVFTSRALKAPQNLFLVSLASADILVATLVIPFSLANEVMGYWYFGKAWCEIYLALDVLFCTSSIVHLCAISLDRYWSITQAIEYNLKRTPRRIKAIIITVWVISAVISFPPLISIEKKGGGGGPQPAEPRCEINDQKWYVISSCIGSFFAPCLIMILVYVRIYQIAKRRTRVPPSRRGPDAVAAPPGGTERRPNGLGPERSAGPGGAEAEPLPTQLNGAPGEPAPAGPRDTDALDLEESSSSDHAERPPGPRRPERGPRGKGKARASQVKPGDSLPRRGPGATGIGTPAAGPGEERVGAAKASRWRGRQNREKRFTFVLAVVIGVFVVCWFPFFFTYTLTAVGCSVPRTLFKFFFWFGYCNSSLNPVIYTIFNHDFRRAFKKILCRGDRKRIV

[2] = biological target: T2, Muscarinic acetylcholine receptor M2 (Homo sapiens, UniProt P08172); type: functional, cell-based
T2 sequence (P08172 whole entry): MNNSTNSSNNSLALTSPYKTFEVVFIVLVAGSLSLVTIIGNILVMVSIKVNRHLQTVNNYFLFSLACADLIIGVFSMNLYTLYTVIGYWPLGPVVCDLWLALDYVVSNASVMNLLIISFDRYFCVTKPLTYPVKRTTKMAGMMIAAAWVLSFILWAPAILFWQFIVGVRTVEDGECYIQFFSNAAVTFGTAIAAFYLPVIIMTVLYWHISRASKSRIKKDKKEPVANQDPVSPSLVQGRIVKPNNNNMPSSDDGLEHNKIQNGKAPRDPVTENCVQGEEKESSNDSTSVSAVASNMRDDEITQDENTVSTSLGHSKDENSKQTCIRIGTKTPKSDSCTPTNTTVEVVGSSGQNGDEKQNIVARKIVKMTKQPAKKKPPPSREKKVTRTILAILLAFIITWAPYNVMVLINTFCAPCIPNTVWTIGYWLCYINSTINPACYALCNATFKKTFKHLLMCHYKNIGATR

[3] = biological target: Voltage-gated inwardly rectifying potassium channel KCNH2 (Homo sapiens, UniProt Q12809); type: functional
[4] = biological target: T3, Cholecystokinin receptor type A (Homo sapiens, UniProt P32238)
T3 sequence (P32238 whole entry): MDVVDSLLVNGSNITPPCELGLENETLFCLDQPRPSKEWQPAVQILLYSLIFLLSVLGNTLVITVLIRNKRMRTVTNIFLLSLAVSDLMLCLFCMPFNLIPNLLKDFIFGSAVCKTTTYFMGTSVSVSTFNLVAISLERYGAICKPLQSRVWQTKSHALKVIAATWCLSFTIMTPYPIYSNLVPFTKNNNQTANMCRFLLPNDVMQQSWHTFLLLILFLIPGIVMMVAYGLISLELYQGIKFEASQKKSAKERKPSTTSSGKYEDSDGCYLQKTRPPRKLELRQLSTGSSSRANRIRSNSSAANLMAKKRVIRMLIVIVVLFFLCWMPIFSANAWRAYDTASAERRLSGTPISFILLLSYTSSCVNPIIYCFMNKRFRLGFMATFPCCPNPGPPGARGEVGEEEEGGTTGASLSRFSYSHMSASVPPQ

[5] = biological target: T4, 5-hydroxytryptamine receptor 1A (Homo sapiens, UniProt P08908); type: functional, cell-based
T4 sequence (P08908 whole entry): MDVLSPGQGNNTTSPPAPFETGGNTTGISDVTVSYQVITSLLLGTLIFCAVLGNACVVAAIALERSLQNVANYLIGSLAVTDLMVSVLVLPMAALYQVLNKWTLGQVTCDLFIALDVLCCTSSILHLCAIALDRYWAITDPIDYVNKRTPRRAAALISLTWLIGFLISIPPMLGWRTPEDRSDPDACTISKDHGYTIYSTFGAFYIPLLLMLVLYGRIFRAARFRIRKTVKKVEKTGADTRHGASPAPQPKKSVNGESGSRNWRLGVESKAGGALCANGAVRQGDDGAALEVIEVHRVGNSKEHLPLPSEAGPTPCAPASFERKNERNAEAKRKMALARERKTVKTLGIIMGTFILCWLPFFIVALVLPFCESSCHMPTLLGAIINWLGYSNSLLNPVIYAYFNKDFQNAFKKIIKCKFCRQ

B2 bradykinin receptor = biological target: T5, B2 bradykinin receptor (Homo sapiens, UniProt P30411)
T5 sequence (P30411 whole entry): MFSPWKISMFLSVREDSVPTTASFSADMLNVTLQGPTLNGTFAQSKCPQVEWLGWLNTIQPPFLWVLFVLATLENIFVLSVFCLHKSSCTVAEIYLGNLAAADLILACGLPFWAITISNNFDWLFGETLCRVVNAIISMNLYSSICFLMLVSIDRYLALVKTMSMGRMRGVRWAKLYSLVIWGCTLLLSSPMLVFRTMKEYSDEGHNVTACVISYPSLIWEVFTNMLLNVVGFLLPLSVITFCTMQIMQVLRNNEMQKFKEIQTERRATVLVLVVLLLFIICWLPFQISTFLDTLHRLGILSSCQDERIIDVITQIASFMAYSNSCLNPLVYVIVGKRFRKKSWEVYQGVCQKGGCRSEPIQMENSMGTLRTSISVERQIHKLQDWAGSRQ

D(3) dopamine receptor = D(3) dopamine receptor (Homo sapiens, UniProt P35462)
Note: assay procedure not described here.

Sequence of D(3) dopamine receptor (P35462 whole entry): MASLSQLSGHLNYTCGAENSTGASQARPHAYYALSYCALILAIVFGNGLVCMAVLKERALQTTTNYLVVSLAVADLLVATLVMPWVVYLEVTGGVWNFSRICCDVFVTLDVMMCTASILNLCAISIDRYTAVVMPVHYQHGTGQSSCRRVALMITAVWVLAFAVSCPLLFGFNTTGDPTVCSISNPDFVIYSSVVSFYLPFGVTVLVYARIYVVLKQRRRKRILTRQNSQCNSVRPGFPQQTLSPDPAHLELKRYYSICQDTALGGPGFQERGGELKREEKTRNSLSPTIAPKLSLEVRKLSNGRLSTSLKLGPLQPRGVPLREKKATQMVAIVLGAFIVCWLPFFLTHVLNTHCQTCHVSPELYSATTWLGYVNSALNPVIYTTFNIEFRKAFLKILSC
Sequence of Voltage-gated inwardly rectifying potassium channel KCNH2 (Q12809 whole entry): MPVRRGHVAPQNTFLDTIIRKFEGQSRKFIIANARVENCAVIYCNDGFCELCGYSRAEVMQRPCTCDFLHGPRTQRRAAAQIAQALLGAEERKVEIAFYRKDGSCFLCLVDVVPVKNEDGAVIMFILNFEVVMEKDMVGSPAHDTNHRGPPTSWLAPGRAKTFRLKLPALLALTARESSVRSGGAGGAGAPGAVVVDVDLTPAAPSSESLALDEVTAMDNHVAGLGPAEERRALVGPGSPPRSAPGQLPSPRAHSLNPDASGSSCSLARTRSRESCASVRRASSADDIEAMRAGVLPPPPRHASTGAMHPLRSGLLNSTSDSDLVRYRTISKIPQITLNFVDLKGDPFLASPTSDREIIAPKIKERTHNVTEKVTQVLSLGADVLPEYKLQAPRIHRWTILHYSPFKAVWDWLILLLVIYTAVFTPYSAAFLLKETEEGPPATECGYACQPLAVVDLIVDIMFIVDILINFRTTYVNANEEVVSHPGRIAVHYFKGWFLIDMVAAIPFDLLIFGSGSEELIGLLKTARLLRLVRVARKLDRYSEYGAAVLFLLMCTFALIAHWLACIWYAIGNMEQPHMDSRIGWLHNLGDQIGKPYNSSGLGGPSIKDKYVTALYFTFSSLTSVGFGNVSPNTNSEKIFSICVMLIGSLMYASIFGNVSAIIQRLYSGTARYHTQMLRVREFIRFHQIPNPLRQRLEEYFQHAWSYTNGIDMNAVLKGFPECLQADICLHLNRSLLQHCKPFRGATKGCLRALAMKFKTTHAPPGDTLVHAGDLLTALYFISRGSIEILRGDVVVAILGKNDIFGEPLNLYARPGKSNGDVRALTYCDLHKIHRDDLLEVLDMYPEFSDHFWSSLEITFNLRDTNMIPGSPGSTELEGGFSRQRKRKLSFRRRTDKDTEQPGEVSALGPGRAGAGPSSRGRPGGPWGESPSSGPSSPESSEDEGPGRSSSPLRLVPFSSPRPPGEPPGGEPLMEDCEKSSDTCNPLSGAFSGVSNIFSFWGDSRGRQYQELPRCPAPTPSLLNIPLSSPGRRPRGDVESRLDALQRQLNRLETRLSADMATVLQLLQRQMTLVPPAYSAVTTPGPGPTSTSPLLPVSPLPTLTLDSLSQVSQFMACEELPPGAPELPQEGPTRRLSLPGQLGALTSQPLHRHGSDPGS

| Compound | AC50 [1] [µM] | AC50 [2] [µM] | AC50 [3] [µM] | AC50 [4] [µM] | AC50 [5] [µM] | AC50 (B2 bradykinin receptor) [µM] | AC50 (D(3) dopamine receptor) [µM] |
| --- | --- | --- | --- | --- | --- | --- | --- |
| CC1(C)S[C@@H]2[C@H](NC(=O)[C@H](N)c3ccccc3)C(=O)N2[C@H]1C(=O)OCOC(=O)[C@@H]1N2C(=O)C[C@H]2S(=O)(=O)C1(C)C [SULTAMICILLIN] | > 30 | > 30 | > 30 | > 30 | > 30 | > 30 | > 30 |
| Nc1ncn([C@H]2C[C@H](O)[C@@H](CO)O2)c(=O)n1 [DECITABINE] | > 30 | > 30 | > 30 | > 30 | > 30 | > 30 | > 30 |
| [H]/N=C(/N)N/C(=N/[H])NCCc1ccccc1 [PHENFORMIN] | > 10 | > 10 | > 30 | > 30 | > 30 | > 30 | > 30 |
| CCCN[C@H]1CCc2nc(N)sc2C1 [PRAMIPEXOLE] | – | > 10 | > 30 | > 30 | 16 | > 30 | – |
| CCOC(=O)C1=C[C@]2(CC)CCCN3CCc4c(n1c1ccccc41)[C@@H]32 [VINPOCETINE] | > 30 | 13 | – | > 30 | > 30 | > 30 | 23 |
| CCC(=O)O[C@]1(C(=O)SCF)[C@H](C)C[C@H]2[C@@H]3C[C@H](F)C4=CC(=O)C=C[C@]4(C)[C@@]3(F)[C@@H](O)C[C@@]21C [FLUTICASONE PROPIONATE] | > 30 | > 30 | > 30 | > 30 | > 30 | > 30 | > 30 |
| CC12CC3CC(C)(C1)CC(N)(C3)C2 [MEMANTINE] | > 10 | > 10 | > 30 | > 30 | > 10 | > 30 | > 30 |
| CC(C)COCC(CN(Cc1ccccc1)c1ccccc1)N1CCCC1 (stereo unspecified) [BEPRIDIL] | > 30 | > 30 | – | 23.2 | > 30 | > 30 | 2.6 |
| CC(C)(C)C(=O)OCC(=O)[C@H]1CC[C@H]2[C@@H]3CCC4=CC(=O)CC[C@]4(C)[C@H]3CC[C@]12C [DESOXYCORTICOSTERONE PIVALATE] | > 10 | > 10 | > 30 | > 10 | > 10 | > 10 | > 30 |
| C[C@]12CCC(=O)C(O)=C1CC[C@@H]1[C@@H]2CC[C@]2(C)C(=O)CC[C@@H]12 [FORMESTANE] | > 30 | > 30 | > 30 | > 30 | > 30 | > 30 | > 30 |
| CCC1(c2ccccc2)CCC(=O)NC1=O (stereo unspecified) [GLUTETHIMIDE] | > 10 | > 10 | > 30 | > 10 | > 30 | > 10 | > 30 |
| CC[C@@H]([C@H](C)O)n1ncn(-c2ccc(N3CCN(c4ccc(OC[C@@H]5CO[C@@](Cn6cncn6)(c6ccc(F)cc6F)C5)cc4)CC3)cc2)c1=O [POSACONAZOLE] | – | – | > 30 | – | – | – | > 30 |
| CCC(C)C(CC)C(N)=O (stereo unspecified) [VALNOCTAMIDE] | > 30 | > 30 | > 30 | > 30 | > 30 | > 30 | > 30 |
| CCC(=O)O[C@]1(C(=O)CCl)[C@@H](C)C[C@H]2[C@@H]3C[C@H](F)C4=CC(=O)C=C[C@]4(C)[C@@]3(F)[C@@H](O)C[C@@]21C [HALOBETASOL PROPIONATE] | – | – | > 30 | – | – | – | – |
| CCOC(=O)C1=C(C)NC(C)=C(C(=O)OC)C1c1cccc([N+](=O)[O-])c1 (stereo unspecified) [NITRENDIPINE] | > 10 | > 10 | > 30 | > 30 | > 10 | > 30 | > 30 |
| CNC1=Nc2ccc(Cl)cc2C(c2ccccc2)=[N+]([O-])C1 [CHLORDIAZEPOXIDE] | > 10 | > 10 | > 30 | > 30 | > 30 | > 30 | > 30 |
| C/N=C(\NC)NCc1ccccc1 [BETHANIDINE] | > 30 | > 30 | > 30 | > 30 | > 30 | > 30 | > 30 |
| CCC[C@H](NC(=O)[C@@H]1[C@H]2CCC[C@H]2CN1C(=O)[C@@H](NC(=O)[C@@H](NC(=O)c1cnccn1)C1CCCCC1)C(C)(C)C)C(=O)C(=O)NC1CC1 | – | – | > 30 | > 30 | – | > 30 | > 30 |
| Clc1ccc(C(Cn2ccnc2)OCc2ccsc2Cl)c(Cl)c1 (stereo unspecified) [TIOCONAZOLE] | > 30 | > 30 | – | > 30 | > 30 | > 3 | 24 |
| CCC(C)C1(CC)C(=O)NC(=O)NC1=O (stereo unspecified) [BUTABARBITAL] | > 30 | > 30 | > 30 | > 30 | > 30 | > 30 | – |
| C=CCSCC1Nc2cc(Cl)c(S(N)(=O)=O)cc2S(=O)(=O)N1 (stereo unspecified) [ALTHIAZIDE] | – | – | > 30 | – | – | – | – |
| Cc1ccccc1N1CCN(CCc2nnc3n2CCCC3)CC1 [DAPIPRAZOLE] | – | – | > 30 | – | – | – | – |
| COc1cc(N)c(Cl)cc1C(=O)NC1CCN(Cc2ccccc2)CC1 [CLEBOPRIDE] | > 30 | > 30 | 1.4 | > 30 | > 30 | > 30 | – |
| COc1ccc(CN(CCN(C)C)c2ccccn2)cc1 [PYRILAMINE] | – | – | 9.59 | – | – | – | – |
| Cc1cc(NC(=O)C2=C(O)c3ccccc3S(=O)(=O)N2C)no1 [ISOXICAM] | – | – | > 30 | – | – | – | – |
| O=[N+]([O-])c1ccc(O)c2ncccc12 [NITROXOLINE] | > 30 | > 30 | 28 | – | > 30 | – | 5.8 |
| CNCc1ccc(-c2[nH]c3cc(F)cc4c3c2CCNC4=O)cc1 [RUCAPARIB] | – | > 10 | 14.1 | > 30 | – | > 30 | – |
| Cc1c(N(C)CS(=O)(=O)O)c(=O)n(-c2ccccc2)n1C [METAMIZOLE] | – | – | > 30 | – | – | – | – |
| CC(C)NCC(O)c1ccc(O)c(O)c1 (stereo unspecified) [ISOPROTERENOL] | – | > 10 | > 30 | > 30 | > 10 | > 30 | > 30 |
